Experimental findings from patent US6528514B1, “IgE antibody production inhibitors and autoimmune diseases inhibitors” (Welfide Corporation, priority 1998, dated 2003) are described below.

The subject of one assay is IgE antibody. As to the kind of experiment: Determination of serum IgE antibody titer in HgCl2-administered BN rats (ELISA). Type of assay: in vivo, rat. The conditions noted are these: for Serum IgE antibody titer / inhibition of IgE antibody titer increased by HgCl2 (in words): male BN rats; for Serum IgE antibody titer: HgCl2 1 mg/mL/kg s.c., compound 30 mg/kg/day orally for 6 days, serum on day 7, *p < 0.05; for inhibition at 30 mg/kg/day: Rattus norvegicus, po, read-out: Inhibition rate. As for the experimental part:
HgCl2, 1 mg/mL/kg, was administered to male BN rats (8 animals per group) subcutaneously at the back (HgCl2 group). Separately, to male BN rats (8 animals per group) similarly administered with HgCl2, Compounds 1˜4 were administered orally in a daily dose of 30 mg/kg for 6 consecutive days beginning the HgCl2 administration day (Compound 1 administration group, Compound 2 administration group, Compound 3 administration group, and Compound 4 administration group, respectively). Here, Compound 3 is 2-[5-amino-2-(3-methoxyphenyl)-6-oxo-1,6-dihydro-1-pyrimidinyl]-N-[1-[(benzoxazol-2-yl)carbonyl]-2-phenylethyl]acetamide and Compound 4 is 2-[5-amino-2-(3-methoxyphenyl)-6-oxo-1,6-dihydro-1-pyrimidin-yl]-N-[1-[[5-(methoxycarbonyl)benzoxazol-2-yl]carbonyl]-2-phenylethyl]acetamide. On day 7 following HgCl2 administration, the animals were sacrificed with CO2 gas, thoracotomized, and the cardiac blood was collected and centrifuged to recover the serum. The serum samples were stored at −20° C. and the IgE antibody titer was determined by the following procedure.
Anti-rat IgE monoclonal antibody [MCARE-01] [manufactured by Biochemical Industry Co., 01404] was diluted to 5 μg/mL with 0.02% NaN3/PBS and an ELISA plate was coated with 50 μL of the solution at 4° C. overnight. After each well was washed, blocking was performed with 3% skim milk/TBS at room temperature for at least 1 hour. After another washing, 50 μL of the test sample diluted 200-fold with 1% BSA/TBS was added to each well, followed by 2 hours of incubation at room temperature. Each well was washed and 50 μL of ALP-labeled anti-rat κ & λ-chain monoclonal antibody (Sigma, lot 113H4804) diluted 5000-fold with 1% BSA/TBS was added. The plate was incubated at room temperature for 2 hours. Each well was washed again, and 50 μL/well of p-nitrophenyl phosphate (in 0.1 M diethanolamine, 1 mg/mL, pH 9.8) was added as the substrate solution. After color development, the reaction was stopped with an equal amount of 0.5 M NaOH and the OD was measured at the wavelength of 405 nm. As the standard rat IgE, Chemicon's rat IgE was used.
On the technique in general: An ELISA detects its analyte on a solid surface through an enzyme-linked reagent.

In assay [1] the test system is anti-type II collagen antibody. As to the kind of experiment: Assay of anti-type II collagen antibody in serum of HgCl2-administered BN rats. Conditions: male BN rats, Compound 1 30 mg/kg orally every day, serum day 12, 14, 16. Type of assay: in vivo, rat. The protocol: (§1) HgCl2, 1 mg/mL/kg, was administered to male BN rats (8 animals per group) subcutaneously at the back every other day from day 1 to day 10, for a total of 5 times (HgCl2 administration group). Separately, in parallel with the administration of HgCl2 in the same manner as above, Compound 1 was administered orally in a daily dose of 30 mg/kg every day (Compound 1 administration group). In the normal group, PBS was administered. On day 12, day 14 and day 16, the blood was drawn from the tail vein and centrifuged to separate the serum. (2-1) Assay of anti-ssDNA antibody
Type II collagen (Collagen Technology Forum, 64-50823) was diluted to 50 μg/mL with 0.02% NaN3/PBS and an ELISA plate was coated with 50 μL/well at 4° C. overnight. After washing, 50 μL of the test sample diluted 50-fold with 1% BSA/PBS was added to the each well and the plate was incubated at room temperature for 2 hours. As the background, wells not supplied with the test sample were provided. Amount of bound antibody was measured as the change of absorbance at 490 nm to 650 nm with the combination of peroxidase-labeled anti-rat IgE(Fc) monoclonal antibody and o-phenylendiamine (1 mg/mL) and H2O2 (as the control, the OD on day 1 was used). The amount of anti-type II collagen antibody was calculated as the difference (ΔOD) from that of the background.
The ordinate represents the difference in absorbance (ΔOD). […]

In the next assay the target is T1, human heart chymase (Homo sapiens, UniProt P23946).
T1 sequence (P23946 22-247): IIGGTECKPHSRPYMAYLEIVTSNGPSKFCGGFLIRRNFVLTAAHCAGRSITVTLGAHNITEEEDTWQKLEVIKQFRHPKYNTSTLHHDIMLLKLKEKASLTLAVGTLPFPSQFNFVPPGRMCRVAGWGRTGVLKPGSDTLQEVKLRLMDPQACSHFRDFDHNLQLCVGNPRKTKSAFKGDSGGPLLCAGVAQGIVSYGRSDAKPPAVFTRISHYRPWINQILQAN
As to the kind of experiment: human heart chymase inhibitory activity test (amidase inhibitory activity). The conditions noted are these: 5 nM chymase; substrate succinyl-alanyl-alanyl-prolyl-phenylalanine-p-nitroanilide; pH 7.5. Type of assay: biochemical.

In another assay the test system is male BN rats. As to the kind of experiment: Arthritis assay in HgCl2-administered BN rats (hindpaw volume, severity score). Type of assay: in vivo, rat. Conditions: HgCl2 s.c. every other day day 1 to day 10, Compound 1 orally every day. As for the experimental part:
HgCl2, 1 mg/mL/kg, was administered to male BN rats (8 animals per group) subcutaneously at the back every other day from day 1 to day 10, for a total of 5 times (HgCl2 administration group). Separately, in parallel with the administration of HgCl2, Compound 1 was administered orally in a daily dose of […] every day (Compound 1 administration group). In the normal group, PBS in lieu of HgCl2 was administered. On day 1, day 12, day 14, day 16 and day 18, the right and left hindpaw volumes were measured and the severity of arthritis was scored.
With regard to right and left hindpaw volumes, the left hindpaw and right hindpaw of each rat were respectively immersed in water and the increase in volume of the water was measured to calculate the rate of increase (%).
“LEFT” represents the left hindpaw volume and “RIGHT” represents the right hindpaw volume. The ordinate represents the rate of volume increase (%). The abscissa represents the number of days from the first day of testing to the measurement day. […]
The arthritis severity was scored for each limb according to the following criteria and the total of scores for the four limbs (maximum score=16) and the average of the scores for 8 animals per group were calculated. […]

A further assay deals with anti-ssDNA antibody. As to the kind of experiment: Assay of anti-ssDNA antibody in serum of HgCl2-administered BN rats. The conditions noted are these: male BN rats, Compound 1 30 mg/kg orally every day, serum day 12, 14, 16. Type of assay: in vivo, rat. As for the experimental part: as §1
A 96-well plate was coated with 50 μL/well of ε-poly-L-lysine having a molecular weight of 2000˜4000 (Wako Pure Chemical Industries, ECN 6644, 25 μg/mL in PBS) at room temperature for 3 hours. […]
After washing, 50 μL of the test sample diluted 50-fold with 1% BSA/PBS was added to each well, and the plate was incubated at room temperature for 2 hours. […] Amount of bound antibody was measured as the change of absorbance at 490 nm to 650 nm with the combination of peroxidase-labeled anti-rat IgE(Fc) monoclonal antibody and o-phenylendiamine (1mg/mL) and H2O2 (as the control, the OD on day 1 was used). The amount of anti-ssDNA antibody was calculated as the difference (ΔOD) from that of the background.
The ordinate represents the difference in absorbance (ΔOD) . […]

Where [2] appears, read: inhibition of serum IgE antibody titer vs HgCl2 group, 30 mg/kg/day orally for 6 days, day 7.

Molecules are shown by their SMILES.

Procedure for human heart chymase: The human heart chymase-inhibitory activity of the obtained Compound 1 was assayed in terms of amidase inhibitory activity of human heart chymase and the efficacy of the compound was evaluated as follows.
The inhibitory activity was determined from the change in residual activity fraction of 5 nM chymase using a concentration series (<×1,<×10,<×100 equivalents) of Compound 1 in the presence of the synthetic substrate succinyl-alanyl-alanyl-prolyl-phenylalanine-p-nitroanilide at a final concentration of 2.5 mmol. Analysis of inhibitory potency was made by the least square regression of the Easson-Stedman plot utilizing bimolecular equilibrium reaction linearization (Proc. Roy. Soc. B., 121, 141, 1936). The apparent inhibition constant (Kiapp) obtained by this analysis and the inhibition constant (Ki) calculated from the final concentration of the substrate in the reaction mixture and the Km value measured separately were used to evaluate the inhibitory activity. For determination of the initial velocity of the enzymatic reaction, the amount of p-nitroaniline produced by hydrolysis of the substrate was spectrometrically estimated from the increase in the absorbance at 405 nm after subtraction of the absorbance at 650 nm. […]
From the absorbance reading immediately after addition of the enzyme, the increase in absorbance was recorded at exactly equal time-intervals as a progressive curve.

In the assay on IgE antibody (setting [2]), `Nc1cnc(-c2cccc(Cl)c2)n(CC(=O)NC(Cc2ccccc2)C(=O)C(F)(F)C(=O)NCc2ccccc2)c1=O` (centres unmarked) [Compound 2, 2-[5-amino-2-(3-chlorophenyl)-1 6-dihydro-6-oxo-1-pyrimidinyl]-N-[1-benzyl-3-[N-(benzyl)carbamoyl]-3,3-difluoro-2-oxopropyl]acetamide] came in with an Inhibition rate of 22.3%. Moreover, the Serum IgE antibody titer with IgE antibody worked out at 67 ± 7.57 µg/mL. In addition, the “inhibition of IgE antibody titer increased by HgCl2 (in words)” value in the assay with IgE antibody (30 mg/kg/day orally for 6 days) was “tendency to inhibit”.

By inhibition is commonly meant the share of the control response that was lost under treatment. What is called Ki is a dissociation constant, usually derived from enzyme kinetics or from competition with a known ligand. As for `COC(=O)c1ccc2oc(C(=O)C(Cc3ccccc3)NC(=O)Cn3c(-c4ccc(F)cc4)ncc(N)c3=O)nc2c1` (centres unmarked) [Compound 1, 2-[5-amino-2-(4-fluorophenyl)-6-oxo-1,6-dihydro-1-pyrimidinyl]-N-[1-[[5-(methoxycarbonyl)benzoxazol-2-yl]carbonyl]-2-phenylethyl]acetamide], the “anti-type II collagen antibody titer (ΔOD, FIG. 4)” value in assay [1] is listed as “reduced”. The inhibition at 30 mg/kg/day with IgE antibody (setting [2]) amounted to 27.8%. For the same molecule, the “Serum IgE antibody titer” value in the assay with IgE antibody is 62.24 ± 5.08*. Besides, the “inhibition of IgE antibody titer increased by HgCl2 (in words)” value in the assay on IgE antibody (30 mg/kg/day orally for 6 days) is on record as “significantly inhibited”. Also, the affinity on human heart chymase, expressed as Ki, was 23 nM. For the same molecule, in the assay on male BN rats (measured up to day 18), the “rate of increase in left and right hindpaw volumes (FIG. 1)” value is “significantly suppressed”. Also, the “arthritis severity score (FIG. 2)” value with male BN rats (total of four limbs, maximum 16) was “significantly reduced”. Also, the “amount of anti-ssDNA antibody (ΔOD, FIG. 3)” value in the assay with anti-ssDNA antibody is on record as “significantly reduced”.

Regarding `COC(=O)c1ccc2oc(C(=O)C(Cc3ccccc3)NC(=O)Cn3c(-c4cccc(OC)c4)ncc(N)c3=O)nc2c1` (centres unmarked) [Compound 4, 2-[5-amino-2-(3-methoxyphenyl)-6-oxo-1,6-dihydro-1-pyrimidin-yl]-N-[1-[[5-(methoxycarbonyl)benzoxazol-2-yl]carbonyl]-2-phenylethyl]acetamide], the inhibition at 30 mg/kg/day with IgE antibody (setting [2]) was determined as 23.4%. The “Serum IgE antibody titer” value in the assay on IgE antibody is reported as 66.10 ± 8.46*. Also, the “inhibition of IgE antibody titer increased by HgCl2 (in words)” value in the assay on IgE antibody (30 mg/kg/day orally for 6 days) was “significantly inhibited”.

Regarding `COc1cccc(-c2ncc(N)c(=O)n2CC(=O)NC(Cc2ccccc2)C(=O)c2nc3ccccc3o2)c1` (centres unmarked) [Compound 3, 2-[5-amino-2-(3-methoxyphenyl)-6-oxo-1,6-dihydro-1-pyrimidinyl]-N-[1-[(benzoxazol-2-yl)carbonyl]-2-phenylethyl]acetamide], the inhibition at 30 mg/kg/day in the assay with IgE antibody (setting [2]) worked out at 24.3%. The “Serum IgE antibody titer” value in the assay on IgE antibody is on record as 65.25 ± 6.71*. Moreover, the “inhibition of IgE antibody titer increased by HgCl2 (in words)” value in the assay on IgE antibody (30 mg/kg/day orally for 6 days) is reported as “significantly inhibited”.
